Test results published in patent publication US20070161568A1, “Use of GLP-1 peptides” (Novo Nordisk A/S, priority 1996, published 2007).
Like-named read-outs stand apart in the source and are kept apart here. No end group written: not given here.

Tests used:
food intake in rats = conditions: cited from earlier work
[1] = test system: food intake in normal human subjects; test: iv infusion of GLP-1(7-36)amide in a double-blind crossover trial: visual analogue scale ratings and ad libitum lunch energy intake; format: in vivo
Source text: The effect of GLP-1(7-36)amide on food intake in normal human subjects.
Healthy human volunteers (20 subjects) were in a double-blind crossover trial given an iv infusion of 50 pmol/(kg·h) of GLP-1(7-36)amide or saline on separate, but otherwise identical experimental days. The infusion was started at 9.00 and lasted until 15.00. At 9.45 the subjects received a fixed amount of breakfast and at 14.15 they had lunch of an identical composition but ad libitum. The subjects rated their feeling of satiety, hunger, fullness and appetite on a visual analogue scale every half hour. The results are given below: • Satiety: GLP-1>Saline, p=0.006 • Hunger: GLP-1<Saline, p=0.007 • Fullness: GLP-1>Saline, p=0.010 • Appetite: GLP-1<Saline, p=0.007
The energy intake of each subjects was measured. The intakes were 3.9 MJ with GLP-1 and 4.3 MJ with Saline resulting in a p-value of 0.009.

[2] = test system: appetite suppression in mice; test: appetite suppression in mice: sucrose consumption, tested immediately after ip injection (Example 2); format: in vivo; conditions: 85 micrograms (equivalent to 3.4 mg/kg), 10 minute period, p-value 0.002
Experimental: Test method for measuring appetite suppression in mice.
Mice were deprived of their normal food for two days and given free access to a 20% sucrose solution on the first day of food deprivation. After the two day food deprivation period, the mice were injected intraperitoneally with 0.5 ml of a solution containing the test substance. Immediately after injection, individual mice were placed in one of eight 15 cm square test boxes with a stainless steel grid floor and a glass drinking tube which projected into the box. […] Consumption of the sucrose solution was measured over a 10 minute period by electronically recording the total amount of contact with the sucrose solution during the test session. The degree of appetite suppression produced by a given test substance was determined by statistical comparison of the mean duration of sucrose consumption by control (vehicle treated) mice with that of mice treated with a test substance. The degree of appetite suppression in a treated group of mice was expressed as percent difference between the test and control group's response duration means. […]

[3] = healthy human volunteers, iv infusion 50 pmol/(kg·h) vs saline, p=0.007

In the case of “GLP-1(1-36)amide (HDEFERHAEGTFTSDVSSYLEGQAAKEFIAWLVKGR-NH2; UniProt P01275 92-127, looked up, fragment) [GLP-1 fragment 1-36 as C-terminal amide, literature result]”, the “effect on food intake” value (food intake in rats; route not stated, Tang-Christensen et al.) is listed as “no effect”.

With “GLP-1(7-36)amide (HAEGTFTSDVSSYLEGQAAKEFIAWLVKGR-NH2; UniProt P01275 98-127, looked up) [fragment 7-36 of GLP-1 as C-terminal amide]” the “Satiety (visual analogue scale)” value ([1]; healthy human volunteers, iv infusion 50 pmol/(kg·h) vs saline, rated every half hour, p=0.006) was “GLP-1>Saline”, the “Appetite (visual analogue scale)” value [1, 3] was “GLP-1<Saline” and the “Hunger (visual analogue scale)” value [1, 3] was “GLP-1<Saline”. The “Fullness (visual analogue scale)” value ([1]; healthy human volunteers, iv infusion 50 pmol/(kg·h) vs saline, p=0.010) was “GLP-1>Saline” and the “suppression of sucrose consumption” value [2] was 60%.

In the case of “GLP-1: proglucagon fragment 72-108, commonly referred to as GLP-1(1-37) or just GLP-1; in b61 it means GLP-1(7-36)amide”, the energy intake ([1]; ad libitum lunch, iv infusion 50 pmol/(kg·h), saline 4.3 MJ, p-value 0.009) is listed as 3.9 mJ, the “effect on food intake” value (food intake in rats; administered intracerebroventricularly, Tang-Christensen et al.) is listed as “profound effect” and the “effect on food intake” value (food intake in rats; administered intracerebroventricularly, Turton et al.) is listed as “profound effect”. The “effect on food intake” value (food intake in rats; peripheral administration, Turton et al.) was “inactive” and the “effect on food intake” value (food intake in rats; peripherally administered, Tang-Christensen et al.) was “no significant effect”.
